From ChEMBL document CHEMBL1128203, “Synthesis and structure-activity relationships of acetylcholinesterase inhibitors: 1-benzyl-4-[(5,6-dimethoxy-1-oxoindan-2-yl)methyl]piperidine hydrochloride and related compounds” (J Med Chem, 1995)

Biological target: T1, Acetylcholinesterase (Mus musculus, UniProt P21836)
T1 sequence (P21836 whole entry): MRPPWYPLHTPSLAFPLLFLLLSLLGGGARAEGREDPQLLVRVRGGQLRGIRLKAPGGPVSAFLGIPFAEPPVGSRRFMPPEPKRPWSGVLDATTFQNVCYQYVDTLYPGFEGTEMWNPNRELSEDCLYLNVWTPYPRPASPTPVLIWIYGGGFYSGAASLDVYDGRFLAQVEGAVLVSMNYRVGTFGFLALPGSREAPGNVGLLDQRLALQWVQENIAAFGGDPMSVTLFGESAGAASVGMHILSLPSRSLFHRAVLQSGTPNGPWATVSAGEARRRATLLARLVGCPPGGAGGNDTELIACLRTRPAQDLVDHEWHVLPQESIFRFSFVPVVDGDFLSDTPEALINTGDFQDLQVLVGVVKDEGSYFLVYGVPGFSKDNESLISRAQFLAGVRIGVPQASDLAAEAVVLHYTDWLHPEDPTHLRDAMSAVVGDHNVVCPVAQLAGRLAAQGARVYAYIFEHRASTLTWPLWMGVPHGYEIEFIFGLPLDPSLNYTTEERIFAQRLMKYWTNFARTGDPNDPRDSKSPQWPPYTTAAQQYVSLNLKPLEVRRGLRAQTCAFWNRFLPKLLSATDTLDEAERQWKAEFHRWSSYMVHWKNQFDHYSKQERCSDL
Description: Inhibitory activity against acetylcholinesterase

COc1cc2c(cc1OC)C(=O)C(CCCC1CCN(Cc3ccccc3)CC1)C2 (stereo not drawn)
IC50: 1.5 nM

COc1ccc(OC)c2c1CC(CC1CCN(Cc3ccccc3)CC1)C2=O (stereo not drawn)
IC50: 36 nM

O=C1c2ccccc2CC1CCC1CCN(Cc2ccccc2)CC1 (stereo not drawn)
IC50: 230 nM

COc1ccc2c(c1OC)C(=O)C(CC1CCN(Cc3ccccc3)CC1)C2 (stereo not drawn)
IC50: 85 nM

COc1cc2c(cc1OC)C(=O)C(CC1CCN(Cc3cccc(C)c3)CC1)C2 (stereo not drawn)
IC50: 2 nM

COc1cc2c(cc1OC)C(=O)/C(=C\C1CCN(Cc3ccccc3)CC1)C2
IC50: 13 nM

COc1ccc2c(c1OC)CC(CC1CCN(Cc3ccccc3)CC1)C2=O (stereo not drawn)
IC50: 20 nM

CNC(=O)Oc1ccc2c(c1)[C@]1(C)CCN(C)[C@@H]1N2C [PHYSOSTIGMINE]
IC50: 0.68 nM
